Results taken from patent EP0363829A2, “Predicting sensitivity to injectable radio contrast media with histamine release test” (MILES INC., priority 1988, dated 1990).

How the values were obtained:
[1] = set-up: species or system patients; details: human, in vivo
Protocol: A clinical study was performed to test the hypothesis that sensitivity (allergy) to radio contrast media could be predicted by the results of the histamine release test described herein. Histamine release from a blood sample from patients who would later be tested with a radio contrast media was measured. The results were later compared with the occurrence of an allergic reaction to the administration of the radio contrast media.

basophils = assay type: cell-based, patients
Protocol: In the first step a histamine-protein conjugate is adsorbed to 94 polystyrene pegs simultaneously. This is accomplished by submerging the pegs into wells of a 96 well microtiter plate (referred to as the adsorption plate) that contain a solution of a histamine-BSA conjugate. Two microtiter wells contain only BSA and are used as negative controls. Following a one hour incubation period at room temperature, the pegs are removed and washed to remove non-adsorbed conjugate.
A second 96 well microtiter plate (referred to as the release plate) containing various dilutions of RCM or histamine is also prepared. […]
The relative concentration of the monoclonal antibody-horseradish peroxidase conjugate bound to the histamine-BSA conjugate on the polystyrene pegs is now estimated by immersing the pegs in a third microtiter plate (referred to as the chromogen plate) containing a chromogenic substrate for horseradish peroxidase, 2, 2′-azino-di-(3-ethyl-benzothiazoline)-6-sulfonic acid (ABTS®). […] Quantitative assessment of histamine release can be made if a Microtiter ELISA Reader is available. […]
The radio contrast media (RCM) to be tested as the allergen was diluted into 8 to 9 serial dilutions using Tris ACM or distilled water as diluent. […] The release plate was then ready for use. […]

patients with an allergic reaction to the injection of the radio contrast media [1]: one
degree of histamine release (basophils): highest degree of histamine release
histamine release (basophils): significantly more histamine release
SMILES: CC(=O)Nc1c(I)c(NC(C)=O)c(I)c(C(=O)O)c1I [Hypaque]
